Results on 22 compounds are retold here after patent US10988459B2 (priority 2015, dated 2021).

The target in the assay is human RIP1 kinase domain (2-375) (Homo sapiens (Human), UniProt Q13546). Put plainly: biochemical. It is filed as biochemical. The settings on record: tight-binding apparent inhibition constant; human RIP1 kinase domain (2-375) 50 nM, 50 uM ATP, 2 hours; read-out: Ki. The procedure, abridged: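 50 nM purified kinase domain from baculovirus-infected insect cells, incubated 2 h with compound in 50 mM Hepes pH 7.5, 30 mM MgCl2, 1 mM DTT, 50 uM ATP, 0.002% Brij-35, 0.5% DMSO. ADP formation read by Transcreener FP at 633 nm excitation. Ki^app fitted with the Morrison tight-binding equation.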
Chain of human RIP1 kinase domain (2-375) (Q13546 2-375): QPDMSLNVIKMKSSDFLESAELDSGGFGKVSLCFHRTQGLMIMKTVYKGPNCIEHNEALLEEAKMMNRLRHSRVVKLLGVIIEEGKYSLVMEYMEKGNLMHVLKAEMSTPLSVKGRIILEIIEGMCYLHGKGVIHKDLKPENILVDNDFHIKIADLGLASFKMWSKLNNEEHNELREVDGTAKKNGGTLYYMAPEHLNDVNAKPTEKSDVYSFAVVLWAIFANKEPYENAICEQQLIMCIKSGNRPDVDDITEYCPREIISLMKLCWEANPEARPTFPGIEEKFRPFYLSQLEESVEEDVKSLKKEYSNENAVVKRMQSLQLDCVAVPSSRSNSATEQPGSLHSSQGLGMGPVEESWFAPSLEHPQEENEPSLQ
Turning to `CN1C(=O)[C@H](NC(=O)c2ncn(Cc3c(F)cccc3F)n2)CCn2ccnc21` [Example 602, 1-[(2,6-difluorophenyl)methyl]-N-[(7R)-9-methyl-8-oxo-6,7-dihydro-5H-imidazo[1,2-a][1,3]diazepin-7-yl]-1,2,4-triazole-3-carboxamide], the Ki was determined as 31 nM.

On to `CN1C(=O)[C@@H](NC(=O)c2ncn(Cc3ccccc3C#N)n2)CCn2nccc21` [Example 603, 1-[(2-cyanophenyl)methyl]-N-(6S)-4-methyl-5-oxo-7,8-dihydro-6H-pyrazolo[1,5-a][1,3]diazepin-6-yl-1,2,4-triazole-3-carboxamide], for which the Ki is 370 nM.

For the compound `Cc1ccccc1Cn1cnc(C(=O)N[C@H]2CCn3nc(C4CC4)cc3N(C)C2=O)n1` [Example 604], the Ki was determined as 21 nM.

Turning to `CC(C)n1ncc2cnc(C(=O)N[C@H]3COc4cc(F)cc(F)c4NC3=O)nc21` [Example 605, 1-isopropyl-N-[(3S)-6,8-difluoro-4-oxo-3,5-dihydro-2H-1,5-benzoxazepin-3-yl]pyrazolo[3,4-d]pyrimidine-6-carboxamide], the Ki was 9.5 nM.

`Cc1cc(F)c2c(c1)OC[C@H](NC(=O)c1ncc3cnn(C(C)C)c3n1)C(=O)N2` [Example 606, 1-isopropyl-N-[(3S)-6-fluoro-8-methyl-4-oxo-3,5-dihydro-2H-1,5-benzoxazepin-3-yl]pyrazolo[3,4-d]pyrimidine-6-carboxamide]: the Ki came out at 4.8 nM.

With `CC(C)n1ncc2cnc(C(=O)N[C@H]3CCc4cc(F)cc(F)c4NC3=O)nc21` [Example 607, 1-isopropyl-N-[(3S)-7,9-difluoro-2-oxo-1,3,4,5-tetrahydro-1-benzazepin-3-yl]pyrazolo[3,4-d]pyrimidine-6-carboxamide], the Ki came out at 28 nM.

As to `Cc1nc(C)n2c1N(C)C(=O)[C@H](NC(=O)c1ncn(Cc3ccccc3)n1)CC2` [Example 608, 1-benzyl-N-(3R)-1,7,9-trimethyl-2-oxo-4,5-dihydro-3H-imidazo[1,5-a][1,3]diazepin-3-yl-1,2,4-triazole-3-carboxamide], the Ki amounted to 190 nM.

For the compound `Cc1cc2n(n1)CC[C@H](NC(=O)c1ncc3cnn(-c4c(F)cccc4F)c3n1)C(=O)N2C` [Example 609, 1-(2,6-difluorophenyl)-N-[(6S)-2,4-dimethyl-5-oxo-7,8-dihydro-6H-pyrazolo[1,5-a][1,3]diazepin-6-yl]pyrazolo[3,4-d]pyrimidine-6-carboxamide], the Ki is 71 nM.

For the compound `Cc1cc2n(n1)CC[C@H](NC(=O)c1nc3n(n1)[C@@H](c1ccccc1)CC3)C(=O)N2C` [Example 615, (5R)-5-phenyl-N-[(6S)-2,4-dimethyl-5-oxo-7,8-dihydro-6H-pyrazolo[1,5-a][1,3]diazepin-6-yl]-6,7-dihydro-5H-pyrrolo[1,2-b][1,2,4]triazole-2-carboxamide], the Ki worked out at 11 nM.

With `CN1C(=O)[C@@H](NC(=O)c2ncc3c(n2)C2(CCC2)OC3)COc2ccccc21` [Example 616, N-[(3S)-5-methyl-4-oxo-2,3-dihydro-1,5-benzoxazepin-3-yl]spiro[5H-furo[3,4-d]pyrimidine-7,1′-cyclobutan]-2-carboxamide], the Ki was 5.7 nM.

Turning to `O=C(N[C@H]1COc2cc(F)cc(F)c2NC1=O)c1ncc2c(n1)C1(CCC1)OC2` [Example 617, N-[(3S)-6,8-difluoro-4-oxo-3,5-dihydro-2H-1,5-benzoxazepin-3-yl]spiro[5H-furo[3,4-d]pyrimidine-7,1′-cyclobutane]-2-carboxamide], the Ki came to 11 nM.

Take `O=C(N[C@H]1CCc2cc(F)cc(F)c2NC1=O)c1ncc2c(n1)C1(CCC1)OC2` [Example 618]: the Ki is 24 nM.

As for `CCC[C@]1(C)OCc2cnc(C(=O)N[C@H]3COc4cc(F)cc(F)c4NC3=O)nc21` [Example 619, (7S)-7-methyl-7-propyl-N-[(3S)-6,8-difluoro-4-oxo-3,5-dihydro-2H-1,5-benzoxazepin-3-yl]-5H-furo[3,4-d]pyrimidine-2-carboxamide], the Ki stood at 180 nM.

For the compound `CCC[C@@]1(C)OCc2cnc(C(=O)N[C@H]3COc4cc(F)cc(F)c4NC3=O)nc21` [Example 620, (7R)-7-methyl-7-propyl-N-[(3S)-6,8-difluoro-4-oxo-3,5-dihydro-2H-1,5-benzoxazepin-3-yl]-5H-furo[3,4-d]pyrimidine-2-carboxamide], the Ki was 14 nM.

Turning to `O=C(N[C@H]1COc2cc(F)cc(F)c2NC1=O)c1nc2n(n1)[C@@H](c1ccccc1)CC2` [Example 621, (5R)-5-phenyl-N-[(3S)-6,8-difluoro-4-oxo-3,5-dihydro-2H-1,5-benzoxazepin-3-yl]-6,7-dihydro-5H-pyrrolo[1,2-b][1,2,4]triazole-2-carboxamide], the Ki worked out at 3.1 nM.

On to `O=C(N[C@H]1CCc2cc(F)cc(F)c2NC1=O)c1nc2n(n1)[C@@H](c1ccccc1)CC2` [Example 622, (5R)-5-phenyl-N-[(3S)-7,9-difluoro-2-oxo-1,3,4,5-tetrahydro-1-benzazepin-3-yl]-6,7-dihydro-5H-pyrrolo[1,2-b][1,2,4]triazole-2-carboxamide], for which the Ki was found to be 5 nM.

On to `CN1C(=O)[C@@H](NC(=O)c2nc3n(n2)[C@@H](c2ccccc2)CC3)COc2ccccc21` [Example 623, (5R)-5-phenyl-N-[(3S)-5-methyl-4-oxo-2,3-dihydro-1,5-benzoxazepin-3-yl]-6,7-dihydro-5H-pyrrolo[1,2-b][1,2,4]triazole-2-carboxamide], for which the Ki is 3.4 nM.

Turning to `CN1C(=O)[C@@H](NC(=O)c2nc3n(n2)CCO[C@@H]3c2ccccc2F)COc2ccccc21` [Example 629, (8R)-8-(2-fluorophenyl)-N-[(3S)-5-methyl-4-oxo-2,3-dihydro-1,5-benzoxazepin-3-yl]-6,8-dihydro-5H-[1,2,4]triazolo[5,1-c][1,4]oxazine-2-carboxamide], the Ki came to 14 nM.

Regarding `O=C(N[C@H]1CCc2cc(F)cc(F)c2NC1=O)c1nc2n(n1)CCO[C@H]2c1ccccc1F` [Example 630, (8S)-8-(2-fluorophenyl)-N-[(3S)-7,9-difluoro-2-oxo-1,3,4,5-tetrahydro-1-benzazepin-3-yl]-6,8-dihydro-5H-[1,2,4]triazolo[5,1-c][1,4]oxazine-2-carboxamide], the Ki was determined as 30 nM.

On to `CN1C(=O)[C@@H](NC(=O)c2ncc3cnn(-c4ccccn4)c3n2)COc2ccccc21` [Example 631, 1-(2-pyridyl)-N-[(3S)-5-methyl-4-oxo-2,3-dihydro-1,5-benzoxazepin-3-yl]pyrazolo[3,4-d]pyrimidine-6-carboxamide], for which the Ki was 160 nM.

As to `Cc1cc2n(n1)CC[C@H](NC(=O)c1ncc3cnn(-c4ccccn4)c3n1)C(=O)N2C` [Example 632, 1-(2-pyridyl)-N-[(6S)-2,4-dimethyl-5-oxo-7,8-dihydro-6H-pyrazolo[1,5-a][1,3]diazepin-6-yl]pyrazolo[3,4-d]pyrimidine-6-carboxamide], the Ki was determined as 3100 nM.

Regarding `Cc1cc2n(n1)CC[C@@H](NC(=O)c1ncc3cnn(-c4ccccn4)c3n1)C(=O)N2C` [Example 633, 1-(2-pyridyl)-N-[(6R)-2,4-dimethyl-5-oxo-7,8-dihydro-6H-pyrazolo[1,5-a][1,3]diazepin-6-yl]pyrazolo[3,4-d]pyrimidine-6-carboxamide], the Ki came to 3800 nM.
